Counter-ions that a name gives are not always drawn.
Assays:
SW 480 = experiment: Growth inhibition test (MTT) for cytotoxic properties; type: cell-based, human; conditions: Table 1a, glycoconjugates of batracyline
Description: (§1) Growth Inhibition Test for Determination of the Cytotoxic Properties of Glycoconjugates of Batracyline and of Quinolone-a
(§2) The human colon cell lines SW 480 and HT 29 (ATCC no. CCL 228 and HBT-38) and the mouse melanoma cell line B 16 F 10 were cultured in Roux dishes in RPMI 1640 medium with addition of 10% FCS. The cultures were then trypsinized and taken up in RPMI plus 10% FCS to a cell count of 50,000 cells/ml. 100 μl of cell suspension/well were introduced into a 96 microwell plate and incubated for 1 day at 37° C. in a CO2 incubating cabinet. A further 100 μl of RPMI medium and 1 μl of dimethyl sulphoxide with the test substances were then added. The growth was checked after day 3 and day 6. 40 μl of MTT solution (3-(4,5-dimethylthiazol-2-yl)-2,5-diphenyltetrazoline bromide) with an initial concentration of 5 mg/ml of H2 O were added to each microwave. The plate was incubated for 5 hours in a CO2 incubating cabinet at 37° C. The medium was then sucked off and 100 μl of i-propanol/well were added. After shaking for 30 minutes with 100 μl of H2 O, the extinction was measured at 540 nm with a Titertek Multiskan MCC/340 (Flow).
(§3) The cytotoxic action of the glycoconjugates of batracyline described is shown in Table 1a as the IC50 value in each case for the SW 480 and HT 29 cell lines.

HT 29 = experiment: as above; type: cell-based, human; conditions: Table 1a, glycoconjugates of batracyline
Description: as §1, §2, §3

Compound	IC50 (SW 480) [µM]	IC50 (HT 29) [µM]
N-{N-[O-(3-O-Carboxymethyl-β-D-galactopyranosyl)-4-hydroxy-phenylamino -thiocarbonyl]-D-alanyl}-batracyline, sodium salt [Example 7.11]	30	25
N-{N^α -[O-(β-D-Galactopyranosyl)-4-hydroxy-phenylamino-thiocarbonyl]-lysyl- D-alanyl}-batracyline [Example 4.6]	10	10
N-{N^α,N^ε -Bis-[O-(3-O-methoxycarbonylmethyl-β-D-galactopyranosyl)-4-hydroxy-ph enylamino-thiocarbonyl]-lysyl-D-alanyl}-batracyline [Example 6.80]	40	25
N-{N^α,N^ε -Bis-[O-(3-O-methyl-α-D-mannopyranosyl)-4-hydroxy-phenylamino-thioca rbonyl]-lysyl-seryl}-batracyline [Example 6.36]	70	70
N-{N^α,N^ε -Bis-[O-(3-O-carboxymethyl-β-D-galactopyranosyl)-4-hydroxy-phenylamin o-thiocarbonyl]-lysyl-D-asparagyl}-batracyline, di-sodium salt [Example 6.46]	120	100
N-{N^α -[O-(3-O-Methyl-β-D-galactopyranosyl)-4-hydroxy-phenylamino-thiocarbo nyl]-lysyl-D-alanyl}-batracyline [Example 4.7]	15	15
N-{N-[O-(3,4-Di-O-methyl-β-D-galactopyranosyl)-4-hydroxy-phenylamino-t hio-carbonyl]-D-alanyl}-batracyline [Example 7.8]	40	30
N-{N^α -[O-(3-O-Carboxymethyl-β-D-galactopyranosyl)-4-hydroxy-phenylamino-th iocarbonyl]-N^ε -[O-(3,4-di-O-methyl-β-D-galactopyranosyl)-4-hydroxy-phenylamino-thio carbonyl]-lysyl-D-alanyl}-batracyline [Example 5.14]	20	30
N-{N^α,N^ε -Bis-[O-(3-O-methyl-β-L-fucosyl)-4-hydroxy-phenylamino-thiocarbonyl]- lysyl-D-seryl}-batracyline [Example 6.23]	107	45
N-{N^α,N^ε -Bis-[O-(3-O-carboxymethyl-β-D-galactopyranosyl)-4-hydroxy-phenylamin o-thiocarbonyl]-lysyl-glycyl}-batracyline, di-sodium salt [Example 6.59]	50	50
N-{N^α -[O-(3-O-Carboxymethyl-β-D-galactopyranosyl)-4-hydroxy-phenylamino-th iocarbonyl]-lysyl-D-alanyl}-batracyline, sodium salt [Example 4.9]	20	30
N-{N^α,N^ε -Bis-[O-(α-L-rhamnosyl)-4-hydroxy-phenylamino-thiocarbonyl]-lysyl-D- alanyl}-batracyline [Example 6.15]	> 250	> 250
N-{N^α -[O-(3-O-Methoxycarbonylmethyl-β-D-galactopyranosyl)-4-hydroxy-phenyl amino-thiocarbonyl]-N^ε -[O-(3-O-carboxymethyl-β-D-galactopyranosyl)-4-hydroxy-phenylamino-th iocarbonyl]-lysyl-D-alanyl}-batracyline, sodium salt [Example 5.19]	35	25
N-{N^α,N^ε -Bis-[O-(2-hydroxyethyl-β-L-fucosyl)-4-hydroxy-phenylamino-thiocarbon yl]-lysyl-D-alanyl}-batracyline [Example 6.10]	50	50
N-{N^α -[O-(3,4-Di-O-methyl-β-D-galactopyranosyl)-4-hydroxy-phenylamino-thio carbonyl]-N^ε -[O-(3-O-(piperidyl-N)-carbonylmethyl-β-D-galactopyranosyl)-4-hydroxy -phenylamino-thiocarbonyl]-lysyl-D-alanyl}-batracyline [Example 5.15]	> 250	70
COC1C(C)OC(Oc2ccc(NC(=S)NCCCCC(NC(=S)Nc3ccc(OC4OC(C)C(OC)C(O)C4O)cc3)C(=O)NC(C)C(=O)Nc3ccc4nc5n(c(=O)c4c3)Cc3ccccc3-5)cc2)C(O)C1O [Example 6.3, N-{N^α,N^ε -Bis-[O-(4-O-methyl-β-L-fucosyl)-4-hydroxy-phenylamino-thiocarbonyl]-lysyl-D-alanyl}-batracyline]	70	105

Compound	IC50 (SW 480) [µM]	IC50 (HT 29) [µM]
N-{N-[O-(3-O-Carboxymethyl-β-L-fucosyl)-4-hydroxy-phenylamino-thiocarb onyl]-D-alanyl}-batracyline, sodium salt [Example 7.2]	40	30
N-{N^α -[O-(3-O-Methoxycarbonylmethyl-[-D-galactopyranosyl)-4-hydroxy-phenylamino -thiocarbonyl]-lysyl-D-alanyl}-batracyline [Example 4.8]	50	40
N-{N^α -[-(3-O-Carbamoylmethyl-β-D-galactopyranosyl)-4-hydroxy-phenylamino-t hiocarbonyl]-lysyl-D-alanyl}-batracyline [Example 4.10]	30	30
N-{N^ε -[O-(3-O-Carbamoylmethyl-β-L-fucosyl)-4-hydroxy-phenylamino-thiocarbo nyl]-lysyl-D-alanyl}-batracyline, sodium salt [Example 3.10]	100	125
N-{N-[O-(3-O-Carbamoylmethyl-β-D-galactopyranosyl)-4-hydroxy-phenylami no-thiocarbonyl]-D-alanyl}-batracyline [Example 7.12]	10	10
N-{N^α -[O-(3-O-Carbamoylmethyl-β-D-galactopyranosyl)-4-hydroxy-phenylamino- thiocarbonyl]-N^ε -[O-(3-O-carboxymethyl-β-D-galactopyranosyl)-4-hydroxy-phenylamino-th iocarbonyl]-lysyl-D-alanyl}-batracyline, sodium salt [Example 5.20]	50	30
N-{N^α -[O-(3-O-Methyl-β-L-fucosyl)-4-hydroxyphenylamino-thiocarbonyl]-N. sup.ε -[4-hydroxyethylamino-2-[O-(3-O-methyl-β-L-fucosyl)-4-hydroxyphenylam ino]triazin-6-yl]]-lysyl-D-alanyl}-batracyline [Example 5.8]	100	> 250
N-{N^α -[O-(3-O-Methoxycarbonylmethyl-β-D-galactopyranosyl)-4-hydroxyphenyla mino-thiocarbonyl]-N^ε -[O-(3,4-di-O-methyl-β-D-galactopyranosyl)-4-hydroxy-phenylamino-thio carbonyl]-lysyl-D-alanyl}-batracyline [Example 5.12]	20	20
N-{Nα-[O-(β-L-Fucosyl)-4-hydroxy-phenylamino-thiocarbonyl]-lysy l-D-alanyl}-batracyline [Example 4.1]	25	30
N-{N^α -[O-(3-O-Carboxymethyl-β-D-galactopyranosyl)-4-hydroxy-phenylamino-th iocarbonyl]-N^ε -[O-(3-O-carbamoylmethyl-β-D-galactopyranosyl)-4-hydroxy-phenylamino- thiocarbonyl]-lysyl-D-alanyl}-batracyline, sodium salt [Example 5.23]	25	35
CO[C@@H]1[C@@H](O)[C@H](Oc2ccc(NC(=S)N[C@@H](CCCCN)C(=O)N[C@H](C)C(=O)Nc3ccc4c(c3)CN3C(=O)c5ccccc5C3=N4)cc2)O[C@H](CO)[C@@H]1OC [Example 4.5, N-{N^α -[O-(3,4-Di-O-methyl-β-D-galactopyranosyl)-4-hydroxy-phenylamino-thiocarbonyl]-lysyl-D-alanyl}-batracyline]	15	15
N-{N-[O-(α-D-Mannopyranosyl)-4-hydroxy-phenylamino-thiocarbonyl]-lysy l-D-alanyl}-batracyline [Example 4.11]	15	15
N-{N^α,N^ε -Bis-10-(3-O-carbamoylmethyl-β-D-galactopyranosyl)-4-hydroxy-phenylam ino-thiocarbonyl]-lysyl-glycyl}-batracyline [Example 6.60]	50	40
O=C(O)CO[C@H]1[C@@H](O)[C@@H](CO)O[C@@H](Oc2ccc(NC(=S)NCCCC[C@H](NC(=S)Nc3ccc(O[C@@H]4O[C@H](CO)[C@H](O)[C@H](OCC(=O)O)[C@H]4O)cc3)C(=O)Nc3ccc4nc5n(c(=O)c4c3)Cc3ccccc3-5)cc2)[C@@H]1O [Example 6.28, N-{N^α,N^ε -Bis-[O-(3-O-carboxymethyl-β-D-galactopyranosyl)-4-hydroxy-phenylamino-thiocarbonyl]-lysyl}-batracyline, di-sodium salt]	40	25
N-{N^α,N^ε -Bis-[O-(3-O-methyl-β-D-galactopyranosyl)-4-hydroxy-phenylamino-thioc arbonyl]-lysyl-seryl}-batracyline [Example 6.30]	60	70
